Values of other authors in patent US6696082B2, “Enhanced liposomal thioretinaco ozonide compositions and liposomal carrier” (priority 2002, dated 2004).

Experiments:
malignant tumors = settings: in vivo; cited from earlier work
[1] = test system: cultured malignant and normal cells; settings: except at high concentrations; cited from earlier work
[2] = rats treated with parenteral homocysteine thiolactone; cited from earlier work
[3] = test system: human pancreatic adenocarcinomas; settings: intra-tumor administration, athymic mice; cited from earlier work

For NC(=O)/C=C\C(=O)NC1CCSC1=O (centres unmarked) [N-maleamide homocysteine thiolactone amide], the “growth of malignant tumors in animals” value (malignant tumors) is listed as “suppress the growth of malignant tumors in animals”.

In the case of CC1=C(/C=C/C(C)=C/C=C/C(C)=C/C(=O)NC2CCSC2=O)C(C)(C)CCC1 (centres unmarked) [thioretinamide, N-homocysteine thiolactonyl retinamide], the “growth of cultured cells” value [1] is listed as “decrease growth without degeneration or detachment of the cells” and the antiatherogenic activity [2] is listed as “have antiatherogenic activity”.

For “N-homocysteine thiolactonyl retinamido cobalamin [(NHTR)2Cbl]”, the “growth of cultured cells” value [1] is given as “decrease growth without degeneration or detachment of the cells”, the “growth of human pancreatic adenocarcinomas” value [3] is given as “decreased the growth” and the antiatherogenic activity [2] is given as “have antiatherogenic activity”.

For N-maleyl homocysteine thiolactone amide, the “growth of malignant tumors in animals” value (malignant tumors) is given as “suppress the growth of malignant tumors in animals”.

For “rhodium trichloride oxalyl homocysteine thiolactone amide”, the “growth of malignant tumors in animals” value (malignant tumors) is listed as “suppress the growth of malignant tumors in animals”.
